Results reported in the supplement of paper PMC10307832.

Legend:
Experiment in all cases: relative viability (nuclei count vs DMSO), 5 days (fraction); higher = more cells survive
VX-11e + Decitabine = compound: CC1=CN=C(N=C1C2=CNC(=C2)C(=O)N[C@H](CO)C3=CC(=CC=C3)Cl)NC4=C(C=C(C=C4)F)Cl [VX-11e] + Nc1ncn([C@H]2C[C@H](O)[C@@H](CO)O2)c(=O)n1 [Decitabine] (partner 2 µM)
Outline: (§1)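 Relative viability equals treated-well nuclei counts divided by vehicle-well nuclei counts. Counts came from 4× images of lung cancer cell lines grown in 1536-well plates for 5 days after pin-tool dosing on the day after seeding. Dosing used one drug alone or a fixed anchor-drug dose plus five library-drug doses (not always all listed) in √10 steps, and values are medians of duplicate plates.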

VX-11e + Olaparib = compound: CC1=CN=C(N=C1C2=CNC(=C2)C(=O)N[C@H](CO)C3=CC(=CC=C3)Cl)NC4=C(C=C(C=C4)F)Cl [VX-11e] + O=C(c1cc(Cc2n[nH]c(=O)c3ccccc23)ccc1F)N1CCN(C(=O)C2CC2)CC1 [Olaparib] (partner 8 µM)
Outline: as §1

VX-11e + Luminespib = compound: CC1=CN=C(N=C1C2=CNC(=C2)C(=O)N[C@H](CO)C3=CC(=CC=C3)Cl)NC4=C(C=C(C=C4)F)Cl [VX-11e] + CCNC(=O)c1noc(-c2cc(C(C)C)c(O)cc2O)c1-c1ccc(CN2CCOCC2)cc1 [Luminespib] (partner 0.01 µM)
Outline: as §1

VX-11e + Lapatinib = compound: CC1=CN=C(N=C1C2=CNC(=C2)C(=O)N[C@H](CO)C3=CC(=CC=C3)Cl)NC4=C(C=C(C=C4)F)Cl [VX-11e] + CS(=O)(=O)CCNCc1ccc(-c2ccc3ncnc(Nc4ccc(OCc5cccc(F)c5)c(Cl)c4)c3c2)o1 [Lapatinib] (partner 2 µM)
Outline: as §1

Cell Line | relative viability (VX-11e + Decitabine; first compound 0.04 µM) | relative viability (VX-11e + Decitabine; first compound 0.1265 µM) | relative viability (VX-11e + Decitabine; first compound 0.4 µM) | relative viability (VX-11e + Decitabine; first compound 1.265 µM) | relative viability (VX-11e + Decitabine; first compound 4 µM) | relative viability (VX-11e + Olaparib; first compound 0.04 µM) | relative viability (VX-11e + Olaparib; first compound 0.1265 µM) | relative viability (VX-11e + Olaparib; first compound 0.4 µM) | relative viability (VX-11e + Olaparib; first compound 1.265 µM) | relative viability (VX-11e + Olaparib; first compound 4 µM) | relative viability (VX-11e + Luminespib; first compound 0.04 µM) | relative viability (VX-11e + Luminespib; first compound 0.1265 µM) | relative viability (VX-11e + Luminespib; first compound 0.4 µM) | relative viability (VX-11e + Luminespib; first compound 1.265 µM) | relative viability (VX-11e + Luminespib; first compound 4 µM) | relative viability (VX-11e + Lapatinib; first compound 0.04 µM) | relative viability (VX-11e + Lapatinib; first compound 0.1265 µM) | relative viability (VX-11e + Lapatinib; first compound 0.4 µM) | relative viability (VX-11e + Lapatinib; first compound 1.265 µM) | relative viability (VX-11e + Lapatinib; first compound 4 µM)
NCI-H2009 | 0.377 | 0.394 | 0.369 | 0.293 | 0.244 | 0.684 | 0.635 | 0.805 | 0.769 | 0.378 | 1.07 | 1.03 | 1.03 | 1.08 | 0.349 | 0.944 | 0.891 | 0.729 | 0.265 | 0.438
NCI-H2085 | 0.658 | 0.542 | 0.525 | 0.539 | 0.553 | 0.835 | 0.758 | 0.709 | 0.706 | 0.598 | 0.378 | 0.433 | 0.396 | 0.323 | 0.276 | 0.596 | 0.765 | 0.73 | 0.647 | 0.608
NCI-H1666 | 0.636 | 0.769 | 0.541 | 0.671 | 0.598 | 0.756 | 0.77 |  | 0.742 | 0.649 | 1.02 | 0.92 | 0.941 | 0.829 | 0.642 | 0.713 | 0.99 | 0.467 | 0.43 | 0.388
LCLC-97TM1 | 0.259 | 0.209 | 0.221 |  | 0.171 | 0.432 | 0.363 | 0.29 |  | 0.103 | 0.781 | 0.693 | 0.615 | 0.393 | 0.263 | 1.09 | 0.8 |  | 0.226 | 0.171
NCI-H1755 | 0.7 | 0.736 | 0.665 | 0.716 | 0.661 | 0.903 | 0.853 | 0.874 | 0.942 | 0.747 | 0.3 | 0.42 | 0.479 | 0.466 | 0.324 | 1.05 | 0.97 | 0.833 | 0.93 | 0.771
H3255 | 0.667 | 0.603 | 0.482 | 0.48 | 0.332 | 0.582 | 0.544 | 0.496 | 0.552 | 0.497 | 0.773 | 0.963 | 0.819 | 0.686 | 0.89 | 0.245 | 0.222 | 0.286 | 0.281 | 0.232
NCI-H2087 | 0.318 | 0.295 |  | 0.182 | 0.158 | 0.646 | 0.659 |  | 0.531 | 0.252 | 0.188 | 0.188 |  | 0.154 | 0.152 | 1.23 | 0.867 | 0.42 | 0.979 | 0.295
BEN | 0.505 | 0.645 | 0.712 | 0.573 | 0.654 | 1.04 | 0.935 | 1.11 | 0.904 | 0.994 |  | 0.241 | 0.475 | 0.376 | 0.264 |  | 0.637 | 0.888 | 0.45 | 0.728
COR-L23 | 0.374 | 0.417 | 0.396 | 0.426 | 0.276 | 0.445 | 0.463 | 0.486 | 0.491 | 0.207 | 0.787 | 0.577 | 0.5 | 0.532 | 0.234 | 1.3 | 1 | 0.806 | 0.634 | 0.398
ABC-1 | 1.11 |  | 0.992 | 1.06 | 0.977 | 1.22 |  | 0.667 | 0.771 | 0.926 |  |  | 0.495 | 0.436 | 0.518 | 1.03 | 1.06 | 0.899 | 1.22 | 1.53
SK-MES-1 | 0.341 | 0.384 | 0.363 | 0.4 | 0.272 | 0.732 | 0.636 | 0.826 | 0.493 | 0.265 | 0.838 | 0.634 | 0.766 | 0.406 | 0.262 | 0.452 | 0.414 | 0.47 | 0.436 | 0.282
UMC-11 |  | 0.495 | 0.472 | 0.454 | 0.594 | 0.377 | 0.369 | 0.331 | 0.335 | 0.38 | 1.01 | 1.02 | 1.02 | 0.948 | 0.94 | 0.546 | 0.94 | 0.712 | 0.602 | 0.758
NCI-H2023 | 0.207 | 0.222 | 0.222 | 0.256 | 0.228 | 0.541 | 0.45 | 0.507 | 0.475 | 0.346 | 0.683 | 0.791 | 0.701 | 0.6 | 0.361 | 0.72 | 0.874 | 0.1 | 0.387 | 0.303
LK-2 | 0.179 | 0.33 | 0.177 | 0.208 | 0.207 | 0.688 | 0.783 | 0.676 | 0.657 | 0.45 | 0.197 | 0.198 | 0.193 | 0.182 | 0.183 |  | 0.832 | 0.812 | 0.522 | 0.439
NCI-H1650 | 0.523 | 0.406 | 0.468 | 0.522 | 0.526 | 0.685 | 0.851 | 0.814 | 0.793 | 0.807 | 0.195 | 0.185 |  | 0.192 | 0.186 | 0.76 | 0.626 | 0.204 | 0.289 | 0.444
EKVX | 0.331 | 0.397 | 0.298 | 0.394 | 0.232 | 0.836 | 0.834 | 0.713 | 0.94 | 0.451 | 0.714 | 0.894 | 0.723 | 0.85 | 0.52 | 0.205 | 0.184 | 0.189 | 0.108 | 0.144
